pIC50: −log10 of the molar value.
Biological target: T1, EGFR TMLRCS (T790M/L858R/C797S) (Homo sapiens, UniProt P00533, C797S/L858R/T790M)
T1 construct: host or cells: BaF3-TMLRCS cell line
Test: HTRF Phospho EGFR TMLRCS assay (cellular), BaF3-TMLRCS cells
Type: cell-based
Settings: BaF3-TMLRCS cell line, 4 hours incubation
Description: HTRF Phospho EGFR TMLRCS Assay (Cellular)
BaF3-TMLRCS cell line were obtained from Crownbio (San Diego, Calif., USA). Cells were maintained at 37° C., 5% CO2 in RPMI ATCC (Gibco 31870)+2 mM Glutamine+0.5 μg/ml Puromycin supplemented with 10% fetal bovine serum (FBS) (Gibco).
Cells are transferred as above to Greiner Bio-One, Nr. 784-08 micro-titerplate at 20000 cells/well in 12.5 μl of growth medium/well after the plates had been pre-filled with 12.5 nl of DMSO solutions of the to be tested compound (in dose response) or DMSO only. After spinning the plates at 300×g for 30 seconds the cells were incubated for 4 hours at 37 C, 5% CO2, 95% humidity. The cells were lysed by adding to the compound mix 4 µl/well of the supplemented lysis buffer (Cis-bio, Phospho-EGFR HTRF kit, 64EG1PEH), followed by incubation for 30 min at room temperature with shaking (400 rpm). The plates were then frozen and stored overnight at −80 C. On the next day and after thawing the plates, 4 μl of a mixture of anti-Phospho-EGFR Cryptate and of anti-Phospho-EGFR-d2 antibody solutions prepared in the supplied detection buffer was added to each well. The lidded plates were then incubated for 4 h at room temperature before reading the fluorescence emission at 616 and 665 nm using an Envision reader (Perkin Elmer). Data was analyzed in similar fashion as above using the normalized ratio of the 665 to 616 signals multiplied by 10000.

T1 sequence (P00533 25-1210 T790M/C797S/L858R): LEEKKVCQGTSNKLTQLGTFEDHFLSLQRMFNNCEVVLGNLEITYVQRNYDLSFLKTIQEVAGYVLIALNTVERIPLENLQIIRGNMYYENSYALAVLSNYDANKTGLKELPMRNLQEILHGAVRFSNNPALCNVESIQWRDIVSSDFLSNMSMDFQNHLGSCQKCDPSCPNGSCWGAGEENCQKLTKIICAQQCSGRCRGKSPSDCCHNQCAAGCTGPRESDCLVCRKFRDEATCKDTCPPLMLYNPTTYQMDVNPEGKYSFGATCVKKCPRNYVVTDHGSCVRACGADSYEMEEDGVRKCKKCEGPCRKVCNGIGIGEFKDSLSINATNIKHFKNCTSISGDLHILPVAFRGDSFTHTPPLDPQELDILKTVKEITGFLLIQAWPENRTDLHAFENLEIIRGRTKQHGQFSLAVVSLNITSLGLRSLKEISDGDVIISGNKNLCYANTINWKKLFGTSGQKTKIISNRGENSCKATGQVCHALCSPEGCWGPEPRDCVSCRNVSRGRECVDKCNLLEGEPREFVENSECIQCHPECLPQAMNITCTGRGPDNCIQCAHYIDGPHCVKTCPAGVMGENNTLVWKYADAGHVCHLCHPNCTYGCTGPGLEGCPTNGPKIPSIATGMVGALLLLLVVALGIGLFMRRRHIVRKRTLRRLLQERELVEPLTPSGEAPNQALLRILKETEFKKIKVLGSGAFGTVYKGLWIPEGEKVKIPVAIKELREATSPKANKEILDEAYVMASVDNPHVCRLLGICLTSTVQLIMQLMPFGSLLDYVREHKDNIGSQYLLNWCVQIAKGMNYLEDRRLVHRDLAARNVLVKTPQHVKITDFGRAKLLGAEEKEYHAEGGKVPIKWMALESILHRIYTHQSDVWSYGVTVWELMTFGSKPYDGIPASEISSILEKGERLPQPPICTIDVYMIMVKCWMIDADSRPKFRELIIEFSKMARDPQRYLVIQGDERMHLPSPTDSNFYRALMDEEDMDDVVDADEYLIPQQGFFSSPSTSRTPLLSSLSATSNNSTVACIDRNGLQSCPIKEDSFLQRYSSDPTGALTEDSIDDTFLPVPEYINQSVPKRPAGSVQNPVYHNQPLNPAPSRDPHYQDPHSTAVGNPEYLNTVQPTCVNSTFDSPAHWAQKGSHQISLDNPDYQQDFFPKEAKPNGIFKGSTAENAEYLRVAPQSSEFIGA

SMILES | pIC50
O=C(Nc1nccs1)C(c1ncn2c1CCC2)N1Cc2c(F)cc(-c3ccc(C45CC(CN6CCC(CO)CC6)(C4)C5)cc3)c(F)c2C1=O (racemic) [Example 7, (2RS)-2-[4,7-Difluoro-6-[4-[3-[[4-(hydroxymethyl)-1-piperidyl]methyl]-1-bicyclo[1.1.1]pentanyl]phenyl]-1-oxo-isoindolin-2-yl]-2-(6,7-dihydro-5H-pyrrolo[1,2-c]imidazol-1-yl)-N-thiazol-2-yl-acetamide] | 8.40
O=C(Nc1nccs1)C(c1ncn2c1CCC2)N1Cc2c(F)cc(-c3ccc(C45CC(CN6CCCC6)(C4)C5)cc3)cc2C1=O (racemic) [Example 5, (2RS)-2-(6,7-Dihydro-5H-pyrrolo[1,2-c]imidazol-1-yl)-2-[4-fluoro-1-oxo-6-[4-[3-(pyrrolidin-1-ylmethyl)-1-bicyclo[1.1.1]pentanyl]phenyl]isoindolin-2-yl]-N-thiazol-2-yl-acetamide] | 7.89
O=C(Nc1nccs1)C(c1ncn2c1CCC2)N1Cc2c(Cl)cc(-c3ccc(C45CC(CN6CCC(CO)CC6)(C4)C5)cc3)cc2C1=O (racemic) [Example 1, (2RS)-2-(6,7-Dihydro-5H-pyrrolo[1,2-c]imidazol-1-yl)-2-[4-chloro-6-[4-[3-[[4-(hydroxymethyl)-1-piperidyl]methyl]-1-bicyclo[1.1.1]pentanyl]phenyl]-1-oxo-isoindolin-2-yl]-N-thiazol-2-yl-acetamide] | 8.05
O=C(Nc1nccs1)C(c1ncn2c1CCC2)N1Cc2c(F)cc(-c3ccc(C45CC(CN6CCCC(O)CC6)(C4)C5)cc3)cc2C1=O (racemic) [Example 6, (2RS)-2-(6,7-Dihydro-5H-pyrrolo[1,2-c]imidazol-1-yl)-2-[4-fluoro-6-[4-[3-[[(4RS)-4-hydroxyazepan-1-yl]methyl]-1-bicyclo[1.1.1]pentanyl]phenyl]-1-oxo-isoindolin-2-yl]-N-thiazol-2-yl-acetamide] | 8.10
O=C(Nc1nccs1)C(c1ncn2c1CCC2)N1Cc2c(F)cc(-c3ccc(C45CC(CN6CCC(O)CC6)(C4)C5)cc3)cc2C1=O (racemic) [Example 4, (2RS)-2-(6,7-Dihydro-5H-pyrrolo[1,2-c]imidazol-1-yl)-2-[4-fluoro-6-[4-[3-[(4-hydroxy-1-piperidyl)methyl]-1-bicyclo[1.1.1]pentanyl]phenyl]-1-oxo-isoindolin-2-yl]-N-thiazol-2-yl-acetamide] | 7.89
CN(C)CC12CC(c3ccc(-c4cc(F)c5c(c4)C(=O)N(C(C(=O)Nc4nccs4)c4ncn6c4CCC6)C5)cc3)(C1)C2 (racemic) [Example 3, (2RS)-2-(6,7-Dihydro-5H-pyrrolo[1,2-c]imidazol-1-yl)-2-[6-[4-[3-[(dimethylamino)methyl]-1-bicyclo[1.1.1]pentanyl]phenyl]-4-fluoro-1-oxo-isoindolin-2-yl]-N-thiazol-2-yl-acetamide] | 8.00
O=C(Nc1nccs1)C(c1ncn2c1CCC2)N1Cc2c(F)cc(-c3ccc(C45CC(CN6CCC(CO)CC6)(C4)C5)cc3)cc2C1=O (racemic) [Example 2, (2RS)-2-(6,7-Dihydro-5H-pyrrolo[1,2-c]imidazol-1-yl)-2-[4-fluoro-6-[4-[3-[[4-(hydroxymethyl)-1-piperidyl]methyl]-1-bicyclo[1.1.1]pentanyl]phenyl]-1-oxo-isoindolin-2-yl]-N-thiazol-2-yl-acetamide] | 8.40

— patent US20230057891A1, “EGFR INHIBITORS” (Hoffmann-La Roche Inc., priority 2019, published 2023)
